US9353152B2, “Induction of the mitochondrial permeability transition” (NewSouth Innovations Pty Limited, priority 2002, dated 2016)
“Also recorded” adds a separate entry of the source. Read-outs that look alike come from different tables or passages of the source. Residues, ends and D or L forms follow the SMILES beside them. *: point of attachment. X2 = O=C(C*)Nc1ccc([As](O)O)cc1; X1 = O=C(C*)Nc1ccccc1[As](O)O

Columns and labels:
BAE cells [1] = system: BAE cells
MPTP [2] = molecular target: T1, MPTP (Rattus norvegicus, UniProt Q09073); type: biochemical
T1 construct: Mitochondria were isolated from the livers of ˜250 g male Wistar rats; from tissue; host or cells: rat liver mitochondria (male Wistar rats)
T1 sequence (Q09073 2-298 limits assumed): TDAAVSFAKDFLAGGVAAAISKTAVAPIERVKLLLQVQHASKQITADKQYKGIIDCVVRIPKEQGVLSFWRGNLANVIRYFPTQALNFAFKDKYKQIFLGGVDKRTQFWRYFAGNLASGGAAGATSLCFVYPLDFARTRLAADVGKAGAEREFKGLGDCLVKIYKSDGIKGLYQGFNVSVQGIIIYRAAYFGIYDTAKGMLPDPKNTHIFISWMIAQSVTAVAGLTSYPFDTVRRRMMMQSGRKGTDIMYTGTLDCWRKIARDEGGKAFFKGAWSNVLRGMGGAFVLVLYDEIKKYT

MPTP [3] = molecular target: T1, MPTP; assay: Mitochondria swelling assay (MPT induction, decrease in light scattering at 520 nm); type: biochemical; settings: for blocking of the effect of GSAO on pore opening: 100 μM GSAO with 3 mM Mg^2+, 100 μM EGTA, 10 μM BKA, 5 μM CsA or 8 mM ADP; for swelling of isolated rat liver mitochondria: GSAO 25-200 μM, GSAA, GSCA 100 μM, 60 min
[4] = molecular target: T2, mitochondrial permeability transition pore (Rattus norvegicus, UniProt Q09073); type: biochemical
T2 construct: Mitochondria were isolated from the livers of ˜250 g male Wistar rats; from tissue; host or cells: rat liver mitochondria (male Wistar rats)
T2 sequence (Q09073 2-298 limits assumed): T1 sequence (Q09073 2-298 limits assumed)

BAE cells [5] = assay: Cell viability assay, attached cells (methylene blue), proliferating or growth-quiescent cells; type: cell-based, bovine
Procedure: BAE or HMEC-1 cells were seeded at a density of 10^4 cells per cell into 96 well plates and allowed to adhere overnight and then treated as indicated.

BxPC-3 tumours = assay: Primary tumour growth assay; type: in vivo, SCID mice; settings: 10 mg/kg/day s.c., all experiments (BxPC-3, HT1080, LLC)
Procedure: (§1) Female 7 to 9 week old SCID or C57Bl6/J mice were used (Massachusetts General Hospital, Boston, Mass.). Mice were held in groups of 3 to 5 at a 12 hour day and night cycle and were given animal chow and water ad libidum. SCID or C57Bl6/J mice were anaesthetised by inhalation of isoflurane, the dorsal skin shaved and cleaned with ethanol, and a suspension of 2.5×10^6 BxPC-3, HT1080 or LLC cells in 0.2 mL of PBS, or saline for LLC cells, was injected S.C. in the proximal midline. LLC cells were prepared according to O'Reilly et al. (1997). Tumour volume was calculated using the relationship, a·b^2·0.52, where a is the longest and b the shortest diameter.

CAM angiogenesis = assay: Chick chorioallantoic membrane (CAM) angiogenesis assay; type: in vivo; settings: 5, 10 or 50 μg per pellet, 48 h
Procedure: Fertilised 3 day-old white Leghorn eggs (Spafas, Norwich, Conn.) were cracked, the embryos with intact yolks placed in 20×100 mm petri dishes and incubated for 3 days at 37° C. and 3% CO2 (Folkman, 1985). Methylcellulose (Fisher Scientific, Fair Lawn, N.J.) discs containing 5, 10 or 50 μg of either GSAA or GSAO were then applied to the CAM of individual embryos and incubated for 48 h at 37° C. and 3% CO2. The discs were made by desiccation of GSAA or GSAO in 10 μl of 0.45% methycellulose on teflon rods. The CAMs were observed using a stereomicroscope and scored for no obvious affect or inhibition of CAM angiogenesis as defined by avascular zones. On some occasions CAM blood vessels were injected with India ink and photographed.

BAE cells [6] = type: cell-based, bovine
[7] = Tolerability in tumour-bearing mice; type: in vivo, SCID or C57Bl6/J mice
Procedure: as §1

BAE cells [8] = assay: cells; settings: Bos taurus, read-out: IC50 (μM)*

| SMILES | Fold Increase (BAE cells [1]) | IC50 (BAE cells [1]; read-out: IC50 (μM)*) [µM] | MPTP Swelling Rate Increase/GSAO* Mean (MPTP [2]) | further results |
| --- | --- | --- | --- | --- |
| CC(C)C(N)C(=O)NC(C(=O)NC(CSCC(=O)Nc1ccccc1[As](O)O)C(=O)NCC(=O)O)C(C)O (stereo not drawn) [Compound 23, H-Val-Thr-Cys(CH2CONHC6H4-o-As{OH}2)-Gly-OH] (H-VTC(X1)G-OH; configuration not given here) | 19.8 | 0.42 | 5.4 | times more active than the corresponding p-arsenoxide analogue (BAE cells [1]): approximately 20 times |
| O=C(O)CN(CCOCCOCCN(CC(=O)O)CC(=O)O)CC(=O)O [EGTA, ethylene glycol-bis(beta-aminoethyl ether)-N,N,N′N′-tetraacetic acid] |  |  |  | blocking of the effect of GSAO on pore opening (MPTP [3]): blocked; blocking of GSAO-dependent swelling [4]: blocked |
| NCC(=O)NCC(=O)N[C@@H](CSCC(=O)Nc1ccccc1[As](O)O)C(=O)O [Compound 22, H-Gly-Gly-Cys(CH2CONHC6H4-o-As{OH}2)—OH] | 46.9 | 0.18 | 6.9 | times more active than the corresponding p-arsenoxide analogue (BAE cells [1]): approximately 106 times |
| N[C@@H](CCC(=O)N[C@@H](CSCC(=O)Nc1ccc(C(=O)O)cc1)C(=O)NCC(=O)O)C(=O)O [GSCA, 4-(N—((S-glutathionyl)acetyl)amino)benzoic acid] |  |  |  | swelling of isolated rat liver mitochondria (MPTP [3]): without effect; effect on the viability of proliferating BAE cells (BAE cells [5]; concentrations up to 1.0 mM): no significant effect |
| O=C(O)CC(SCC(=O)Nc1ccc([As](O)O)cc1)C(=O)O (stereo not drawn) [Compound 13, 1-S—(CH2CONHC6H4-p-As{OH}2)-mercaptosuccinic acid] | 0.19 | 43.3 | 1.6 |  |
| [Mg+2] [Mg^2+] |  |  |  | blocking of the effect of GSAO on pore opening (MPTP [3]): blocked; blocking of GSAO-dependent swelling ([4]; FIG. 18 as printed): blocked |
| N[C@@H](CCC(=O)N[C@@H](CSCC(=O)Nc1ccc([As](=O)(O)O)cc1)C(=O)NCC(=O)O)C(=O)O [GSAA, 4-(N—((S-glutathionyl)acetyl)amino)-benzenearsonic acid, reference compound] |  |  |  | inhibition of the rate of tumour growth compared to vehicle alone (BxPC-3 tumours): < 20%; swelling of isolated rat liver mitochondria (MPTP [3]): without effect; inhibition of CAM angiogenesis (avascular zones) (CAM angiogenesis): did not inhibit CAM angiogenesis; also recorded: no affects; effect on O2^− or H2O2 levels (BAE cells [6]): no effect; adverse affects of administration ([7]; 10 mg/kg/day s.c.): no apparent adverse affects; morphological changes in the heart, lungs, liver, kidneys, and spleen ([7]; 10 mg/kg/day s.c.): no morphological changes; average mice weights over the course of the experiments ([7]; GSAO versus GSAA treatment groups): the same; effect on the viability of proliferating BAE cells (BAE cells [5]): no significant effect |
| O=C(CSCCCS(=O)(=O)O)Nc1ccc([As](O)O)cc1 [Compound 10, 3-S—(CH2CONHC6H4-p-As{OH}2)-1-propanesulfonic acid] | 0.21 | 39 | 2.0 |  |
| O=C(O)CCSCC(=O)Nc1ccc([As](O)O)cc1 [Compound 11, 3-S—(CH2CONHC6H4-p-As{OH}2)-1-propionic acid] | 0.05 | 170 | 1.3 |  |
| O=C(O)Cn1nnnc1SCC(=O)Nc1ccc([As](O)O)cc1 [Compound 21, 5-S—(CH2CONHC6H4-p-As{OH}2)-1-tetrazolacetic acid] | 0.16 |  | 2.8 | IC50 (BAE cells [8]): 51.3 µM |
| NC(=O)CCC(NC(=O)C(Cc1ccccc1)NC(=O)C(Cc1ccc(O)cc1)NC(=O)C(N)CSCC(=O)Nc1ccc([As](O)O)cc1)C(=O)NC(CC(N)=O)C(=O)NC(CSCC(=O)Nc1ccc([As](O)O)cc1)C(=O)O (stereo not drawn) [Compound 9, H-Cys-(CH2CONHC6H4-p-As{OH}2)-Tyr-Phe-Gln-Asn-Cys-(CH2CONHC6H4-p-As{OH}2)—OH] (H-C(X2)YFQNC(X2)-OH; configuration not given here) | 0.64 |  |  | IC50 (BAE cells [1]; 72 h): 12.9 µM |
| Nc1ncnc2c1ncn2[C@@H]1O[C@H](COP(=O)(O)OP(=O)(O)O)[C@@H](O)[C@H]1O [ADP] |  |  |  | blocking of the effect of GSAO on pore opening (MPTP [3]): blocked; blocking of the effect of o-GSAO on pore opening [4]: blocked |
| O=C(CS[C@@H]1O[C@H](CO)[C@@H](O)[C@H](O)[C@H]1O)Nc1ccc([As](O)O)cc1 [Compound 14, 1-S—(CH2CONHC6H4-p-As{OH}2)-β-D-glucose] | 0.08 | 106 | 1.1 |  |
| NCC(=O)NCC(=O)NC(CSCC(=O)Nc1ccc([As](O)O)cc1)C(=O)O (stereo not drawn) [Compound 7, H-Gly-Gly-Cys(CH2CONHC6H4-p-As{OH}2)—OH] | 0.44 |  | 2.2 | IC50 (BAE cells [8]): 19 µM |
| CO[C@H](C/C=C\C=C\CC/C=C/C[C@H](C)/C=C/C(=C\C(=O)O)CC(=O)O)/C(C)=C\C=C(/C)C(=O)O [BKA, Bonkrekic acid] |  |  |  | blocking of the effect of GSAO on pore opening (MPTP [3]): blocked |
| N=C(N)NCCC[C@H](N)C(=O)NCC(=O)N[C@@H](CC(=O)O)C(=O)N[C@@H](CSCC(=O)Nc1ccc([As](O)O)cc1)C(=O)O [Compound 6, H-Arg-Gly-Asp-Cys(CH2CONHC6H4-p-As{OH}2)—OH] (H-RGDC(X2)-OH) | 0.45 | 18.2 | 4.5 |  |
| CC(C)C(N)C(=O)NC(C(=O)NC(CSCC(=O)Nc1ccc([As](O)O)cc1)C(=O)NCC(=O)O)C(C)O (stereo not drawn) [Compound 8, H-Val-Thr-Cys(CH2CONHC6H4-p-As{OH}2)-Gly-OH] (H-VTC(X2)G-OH; configuration not given here) | 0.95 |  | 2.1 | IC50 (BAE cells [8]): 8.8 µM |
| O=C(O)CCC(NC(=O)NC(CSCC(=O)Nc1ccc([As](O)O)cc1)C(=O)O)C(=O)O (stereo not drawn) [Compound 3, retro-HO-Cys-(CH2CONHC6H4-p-As{OH}2)-carbonyl-Glu-OH] | 0.07 | 122 | 2.4 |  |
